Converted amounts (≈) assume the structure as drawn.
Experiments:
[1] = tested on: Salmonella typhimurium; experiment: Antibacterial activity against Salmonella typhimurium DT104 assessed as reduction in bacterial growth inhibition measured after 24 hrs by Mueller Hinton Agar dilution method; assay type: functional, Salmonella enterica subsp. enterica serovar Typhimurium; conditions: Salmonella enterica
[2] = tested on: Vibrio parahaemolyticus; experiment: Antibacterial activity against Vibrio parahaemolyticus assessed as reduction in bacterial growth inhibition measured after 24 hrs by Mueller Hinton Agar dilution method; assay type: functional
[3] = tested on: Salmonella enterica subsp. enterica serovar Paratyphi B; experiment: Antibacterial activity against Salmonella paratyphi B CICC 21495 assessed as reduction in […]; assay type: functional; conditions: time lower 48 hrs
[4] = tested on: Edwardsiella tarda; experiment: Antimicrobial activity against Edwardsiella tarda assessed as inhibition of microbial growth incubated for 18 hrs by CLSI protocol based Mueller-Hinton broth assay; assay type: functional
[5] = tested on: Vibrio cholerae; experiment: Antibacterial activity against Vibrio cholerae assessed as inhibition of bacterial growth incubated for 24 hrs by broth microdilution method; assay type: functional
[6] = tested on: Staphylococcus aureus; experiment: Antimicrobial activity against Staphylococcus aureus assessed as inhibition of microbial growth incubated for 18 hrs by CLSI protocol based Mueller-Hinton broth assay; assay type: functional
[7] = tested on: Escherichia coli; experiment: Antimicrobial activity against Escherichia coli assessed as inhibition of microbial growth incubated for 18 hrs by CLSI protocol based Mueller-Hinton broth assay; assay type: functional
[8] = tested on: Vibrio cholerae; experiment: Antibacterial activity against Vibrio cholerae measured after 18 to 20 hrs by broth microdilution method; assay type: functional; conditions: time 18-20 hrs
[9] = tested on: Enterococcus faecalis; experiment: Antimicrobial activity against Enterococcus faecalis assessed as inhibition of microbial growth incubated for 18 hrs by CLSI protocol based Mueller-Hinton broth assay; assay type: functional
[10] = tested on: Salmonella typhimurium; experiment: Antimicrobial activity against Salmonella typhimurium DT104 assessed as inhibition of microbial growth incubated for 18 hrs by CLSI protocol based Mueller-Hinton broth assay; assay type: functional, Salmonella enterica subsp. enterica serovar Typhimurium; conditions: Salmonella enterica
[11] = tested on: Pseudomonas aeruginosa; experiment: Antimicrobial activity against Pseudomonas aeruginosa assessed as inhibition of microbial growth incubated for 18 hrs by CLSI protocol based Mueller-Hinton broth assay; assay type: functional
[12] = tested on: Klebsiella pneumoniae; experiment: Antimicrobial activity against Klebsiella pneumoniae assessed as inhibition of microbial growth incubated for 18 hrs by CLSI protocol based Mueller-Hinton broth assay; assay type: functional
[13] = tested on: Staphylococcus epidermidis; experiment: Antimicrobial activity against Staphylococcus epidermidis assessed as inhibition of microbial growth incubated for 18 hrs by CLSI protocol based Mueller-Hinton broth assay; assay type: functional
[14] = tested on: Salmonella enterica; experiment: Antimicrobial activity against Salmonella enterica assessed as inhibition of microbial growth incubated for 18 hrs by CLSI protocol based Mueller-Hinton broth assay; assay type: functional
[15] = tested on: Aeromonas hydrophila; experiment: Antibacterial activity against Aeromonas hydrophila assessed as inhibition of microbial growth incubated for 24 hrs by CLSI protocol based Mueller-Hinton broth assay; assay type: functional
[16] = tested on: Vibrio cholerae; experiment: Antibacterial activity against Vibrio cholerae assessed as reduction in bacterial growth measured after 18 to 20 hrs by broth microdilution method; assay type: functional; conditions: time 18-20 hrs
[17] = tested on: Bacillus subtilis; experiment: Antibacterial activity against Bacillus subtilis assessed as reduction in bacterial growth incubated for 24 hrs by CLSI protocol based Mueller-Hinton broth assay; assay type: functional
[18] = tested on: Shigella sonnei; experiment: Antibacterial activity against Shigella sonnei assessed as inhibition of bacterial growth measured after 18 to 20 hrs by broth microdilution method; assay type: functional; conditions: time 18-20 hrs
[19] = tested on: Shigella boydii; experiment: Antibacterial activity against Shigella boydii assessed as inhibition of bacterial growth measured after 18 to 20 hrs by broth microdilution method; assay type: functional; conditions: time 18-20 hrs
[20] = tested on: Plesiomonas shigelloides; experiment: Antibacterial activity against Plesiomonas shigelloides assessed as inhibition of bacterial growth measured after 18 to 20 hrs by broth microdilution method; assay type: functional; conditions: time 18-20 hrs
[21] = tested on: Providencia rettgeri; experiment: Antibacterial activity against Providencia rettgeri assessed as bacterial growth inhibition incubated for 18 hrs by CLSI protocol based Mueller-Hinton broth assay; assay type: functional
[22] = tested on: Shigella flexneri; experiment: Antibacterial activity against Shigella flexneri assessed as inhibition of bacterial growth incubated for 24 hrs by broth microdilution method; assay type: functional
[23] = tested on: Proteus vulgaris; experiment: Antimicrobial activity against Proteus vulgaris assessed as microbial growth inhibition incubated for 24 hrs by broth microdilution method; assay type: functional
[24] = tested on: Enterobacter sp.; experiment: Antibacterial activity against Enterobacter sp. assessed as inhibition of bacterial growth; assay type: functional
[25] = tested on: Morganella morganii; experiment: Antibacterial activity against Morganella morganii UM869 incubated for 16 to 18 hrs by broth microdilution method; assay type: functional; conditions: time 16-18 hrs
[26] = tested on: Citrobacter freundii; experiment: Antibacterial activity against multidrug-resistant Citrobacter freundii assessed as bacterial growth inhibition incubated for 20 to 22 hrs by CLSI based analysis; assay type: functional; conditions: time 20-22 hrs
[27] = tested on: Morganella morganii; experiment: Antibacterial activity against Morganella morganii UM573 assessed as bacterial growth inhibition incubated for 20 to 22 hrs by CLSI based analysis; assay type: functional; conditions: time 20-22 hrs
[28] = tested on: Salmonella paratyphi; experiment: Antibacterial activity against Salmonella paratyphi A CICC 21501 incubated overnight by standard microtiter dilution method; assay type: functional, Salmonella enterica subsp. enterica serovar Paratyphi A; conditions: Salmonella enterica
[29] = tested on: Micrococcus luteus; experiment: Antimicrobial activity against Micrococcus luteus assessed as diameter of inhibition zone incubated for 24 hrs by well diffusion assay; assay type: functional
[30] = tested on: Pseudomonas aeruginosa; experiment: Antimicrobial activity against Pseudomonas aeruginosa assessed as diameter of inhibition zone incubated for 24 hrs by well diffusion assay; assay type: functional
[31] = tested on: Bacillus subtilis; experiment: Antimicrobial activity against Bacillus subtilis assessed as diameter of inhibition zone incubated for 24 hrs by well diffusion assay; assay type: functional
[32] = tested on: Enterococcus raffinosus; experiment: Antibacterial activity against Enterococcus raffinosus assessed as bacterial growth inhibition incubated for 24 hrs by CLSI protocol based Mueller-Hinton broth assay; assay type: functional
[33] = tested on: Staphylococcus aureus; experiment: Antibacterial activity against Staphylococcus aureus assessed as bacterial growth inhibition incubated for 24 hrs by CLSI protocol based Mueller-Hinton broth assay; assay type: functional
[34] = tested on: Escherichia coli; experiment: Antibacterial activity against Escherichia coli assessed as reduction in bacterial growth incubated for 16 to 20 hrs by Mueller-Hinton broth based two-fold serial dilution method; assay type: functional; conditions: time 16-20 hrs
[35] = tested on: Streptococcus pyogenes; experiment: Antibacterial activity against Streptococcus pyogenes assessed as reduction in microbial growth incubated for 24 hrs by broth micro-dilution method; assay type: functional
[36] = tested on: Pseudomonas aeruginosa; experiment: Antibacterial activity against Pseudomonas aeruginosa assessed as inhibition of microbial growth by broth micro-dilution method; assay type: functional
[37] = tested on: Escherichia coli; experiment: Antibacterial activity against Escherichia coli assessed as inhibition of microbial growth by broth micro-dilution method; assay type: functional
[38] = tested on: Staphylococcus aureus; experiment: Antibacterial activity against Staphylococcus aureus assessed as inhibition of microbial growth by broth micro-dilution method; assay type: functional
[39] = tested on: Streptococcus pyogenes; experiment: Antibacterial activity against Streptococcus pyogenes assessed as inhibition of microbial growth by broth micro-dilution method; assay type: functional
[40] = tested on: Escherichia coli; experiment: Antibacterial activity against Escherichia coli assessed as reduction in bacterial growth by broth microdilution method; assay type: functional
[41] = tested on: Escherichia coli; experiment: Antibacterial activity Escherichia coli assessed as reduction in bacterial growth; assay type: functional
[42] = tested on: Pseudomonas aeruginosa; experiment: Antibacterial activity against Pseudomonas aeruginosa assessed as reduction in microbial growth after 18 hrs by MTT based broth dilution method; assay type: functional
[43] = tested on: Klebsiella pneumoniae; experiment: Antibacterial activity against Klebsiella pneumoniae assessed as reduction in bacterial growth by broth microdilution method; assay type: functional
[44] = tested on: Bacillus subtilis; experiment: Antibacterial activity against Bacillus subtilis assessed as reduction in bacterial cell viability by well plate method; assay type: functional
[45] = tested on: Staphylococcus epidermidis; experiment: Antibacterial activity against Staphylococcus epidermidis assessed as reduction in microbial growth; assay type: functional

| SMILES | MIC [1] [µg/mL] | MIC [2] [µg/mL] | MIC [3] [µg/mL] | MIC [4] [µg/mL] | MIC [5] [µg/mL] | MIC [6] [µg/mL] | MIC [7] [µg/mL] | MIC [8] [µg/mL] | MIC [9] [µg/mL] | MIC [10] [µg/mL] | MIC [11] [µg/mL] | MIC [12] [µg/mL] | MIC [13] [µg/mL] | MIC [14] [µg/mL] | MIC [15] [µg/mL] | MIC [16] [µg/mL] | MIC [17] [µg/mL] | MIC [18] [µg/mL] | MIC [19] [µg/mL] | MIC [20] [µg/mL] | further results |
| --- | --- | --- | --- | --- | --- | --- | --- | --- | --- | --- | --- | --- | --- | --- | --- | --- | --- | --- | --- | --- | --- |
| COc1cc(Cc2cnc(N)nc2N)cc(OC)c1OC [TRIMETHOPRIM] | > 5000 | 2.44 (≈ 8.4 µM) | 9.76 (≈ 33.6 µM) | 312 | 39.1 (≈ 135 µM) | > 5000 | 19.5 | 1.22 (≈ 4.2 µM) | 78.1 | 4.88 | 5000 | 5000 | > 5000 | 4.88 | 1250 | 5000 (≈ 17200 µM) | 5000 (≈ 17200 µM) | 9.76 (≈ 33.6 µM) | 9.76 (≈ 33.6 µM) | 4.88 (≈ 16.8 µM) | MIC [21]: 2500 µg/mL (≈ 8610 µM); MIC [22]: 156 µg/mL (≈ 538 µM); MIC [23]: 156 µg/mL (≈ 538 µM); MIC [24]: 156 µg/mL (≈ 538 µM); MIC [25]: 156 µg/mL (≈ 538 µM); MIC [26]: 19.5 µg/mL (≈ 67.3 µM); MIC [27]: 156 µg/mL (≈ 538 µM); MIC [28]: 156 µg/mL (≈ 538 µM) |
| Oc1ncnc(O)c1/N=N/c1ccc(/N=N/c2ccccc2)cc1 |  |  |  |  |  |  |  |  |  |  |  |  |  |  |  |  |  |  |  |  | inhibition zone (IZ) [29]: 18 mm; inhibition zone (IZ) [30]: 12 mm; inhibition zone (IZ) [31]: 13 mm |
| Cc1cc(NS(=O)(=O)c2ccc(N)cc2)no1 [SULFAMETHOXAZOLE] | 5000 (≈ 19700 µM) | 1250 (≈ 4940 µM) | 5000 (≈ 19700 µM) | 5000 | > 5000 | 5000 | 2500 | 312 (≈ 1230 µM) | 5000 | 2500 | 78.1 | 2500 | 2500 | 2500 | 2500 | 5000 (≈ 19700 µM) | 5000 (≈ 19700 µM) | 2500 (≈ 9870 µM) | 2500 (≈ 9870 µM) | 5000 (≈ 19700 µM) | MIC [21]: 2500 µg/mL (≈ 9870 µM); MIC [22]: 2500 µg/mL (≈ 9870 µM); MIC [23]: 2500 µg/mL (≈ 9870 µM); MIC [24]: 1250 µg/mL (≈ 4940 µM); MIC [25]: 2500 µg/mL (≈ 9870 µM); MIC [26]: 5000 µg/mL (≈ 19700 µM); MIC [27]: 5000 µg/mL (≈ 19700 µM); MIC [28]: 2500 µg/mL (≈ 9870 µM) |
| Nc1n[nH]c2nc(-c3ccccc3)nc(-c3ccc(Br)cc3)c12 |  |  |  |  |  |  |  |  |  |  |  |  |  |  |  |  |  |  |  |  | MIC [32]: 12.3 µg/mL (≈ 33.6 µM); MIC [33]: 3.8 µg/mL (≈ 10.4 µM) |
| O=C(O)c1cn(C2CC2)c2cc(N3CCNCC3)c(F)cc2c1=O [CIPROFLOXACIN] |  |  |  |  |  |  |  |  |  |  |  |  |  |  |  |  |  |  |  |  | MIC [34]: 25 µg/mL (≈ 75.4 µM); MIC [35]: 12.5 µg/mL; MIC [36]: 200 µg/mL; MIC [37]: 25 µg/mL; MIC [38]: 50 µg/mL; MIC [39]: 50 µg/mL; MIC [40]: 25 µg/mL (≈ 75.4 µM); MIC [41]: 22 µg/mL (≈ 66.4 µM); MIC [42]: 22 µg/mL; MIC [43]: 22 µg/mL (≈ 66.4 µM); MIC [44]: 24 µg/mL (≈ 72.4 µM); MIC [45]: 22 µg/mL |
